Earlier results as cited in PMC3791449, “Mechanism of amyloid β−protein dimerization determined using single−molecule AFM force spectroscopy” (Scientific Reports, 2013).

System: Aβ(13−23) dimer
Details: antiparallel β−sheet structures; cited from earlier work

Aβ(13−23): Aβ(13−23) peptide of published MD simulations (HHQKLVFFAED; Amyloid-beta protein 42; UniProt P05067 684-694, looked up, fragment)
dimer stability by MD simulation: high dimer stability
